Assay results taken from patent US20210219550A1, “PEST CONTROL COMPOSITIONS AND USES THEREOF” (Flagship Pioneering Innovations VI, LLC, priority 2018, published 2021).

Assays:
E. coli = assay: Treatment of bacteria and yeast with DOX-loaded grapefruit PMPs (kinetic OD600, relative OD); conditions: effective DOX 5-100 μM
Protocol: (§1) Bacteria and yeast strains were maintained as indicated by the supplier: E. coli(ATCC, #25922) was grown on Trypticase Soy Agar/broth at 37° C., Pseudomonas aeruginosa (ATCC) was grown on Tryptic soy Agar/broth with […] rifampicin at 37° C., Pseudomonas syringae pv. tomato str. DC3000 bacteria (ATCC, #BAA-871) was grown on King's Medium B agar with […] rifampicin at 30° C., and Saccharomyces cerevisiae (ATCC, #9763) was grown on yeast extract peptone dextrose broth (YPD) and maintained at 30° C. Prior to treatment, fresh one day cultures were grown overnight, the OD (600 nm) was adjusted to 0.1 OD with medium prior to use, and bacteria/yeast were transferred to a 96 well plate for treatment (duplicate samples, 100 μl/well). […] Plates were covered with aluminum foil, and incubated at 37° C. (E. coli, P. aeruginosa), or 30° C. (S. cerevisiae, P. syringae) and agitated at 220 rpm.
(§2) A kinetic Absorbance measurement at 600 nm was performed on a SpectraMax® spectrophotometer to monitor the OD of the cultures at t=0 h, t=1 h, t=2 h, t=3 h, t=4.5 h, t=16 h (E. coli, P. aeruginosa) or t=0.5 h, t=1.5 h, t=2.5 h, t=3.5 h, t=4 h, t=16 h (P. syringae, S. cerevisiae).
(§3) To compare the cytotoxic effect of PMP-DOX treatment on different bacterial and yeast strains, within each treatment group the relative OD was determined as compared to the untreated control (set to 100%).

Pseudomonas aeruginosa = assay: as above; conditions: P. aeruginosa, effective DOX 5-100 μM
Protocol: as §1, §2, §3

[1] = test system: Pseudomonas syringae pv. tomato str. DC3000; assay: as above; conditions: P. syringae, effective DOX 5-100 μM
Protocol: as §1, §2, §3

Saccharomyces cerevisiae = assay: as above; conditions: S. cerevisiae, effective DOX 5-100 μM
Protocol: as §1, §2, §3

[2] = test system: Arabidopsis thaliana seedlings; assay: Treatment of Arabidopsis thaliana seedlings with doxorubicin-loaded PMPs (cytotoxicity: leaf vigor, leaf color, root length); type: in vivo; conditions: 7-day old seedlings, 24 hours treatment, 3 further days; doses tested 25, 50, 100 μM
Protocol: Wild type Arabidopsis thaliana Col-0 seeds were obtained from the ABRC, surface sterilized with 50% bleach, stratified for 1-3 d at 4° C., and germinated on half-strength (0.5×) Murashige and Skoog (MS) medium supplemented with 0.5% sucrose, 2.5 mM MES, pH 5.6, containing 0.8% agar, with a photoperiod of 16 h light 23° C./8 h dark 21° C.
To test whether PMPs can deliver a small molecule cargo in planta, 7-day old Arabidopsis thaliana seedlings were transferred to 0.5× liquid MS medium in a 24 well plate (1 seedling per well), and treated with free DOX or DOX-loaded PMPs with an encapsulated DOX dose of 0 (negative control), 25 μM, 50 μM and 100 μM. The plate was covered with aluminum foil and incubated for 24 hours. DOX-containing medium was removed, the seedlings were washed two times with ½X MS medium, and fresh medium was added. Seedlings were incubated for an additional 3 days under a normal photoperiod (16 h light 23° C./8 h dark 21° C.). Next, seedlings were removed from the plate and towel-dried for imaging and cytotoxicity was assessed by analyzing leaf vigor, leaf color and root length. Cytotoxicity is defined by shortening of the roots, loss of leaf vigor, and leaf discoloration (yellow instead of green) when compared to an untreated seedling control.

COc1cccc2c1C(=O)c1c(O)c3c(c(O)c1C2=O)C[C@@](O)(C(=O)CO)C[C@@H]3O[C@H]1C[C@H](N)[C@H](O)[C@H](C)O1 [free doxorubicin, doxorubicin]
cytotoxic effect (relative OD vs untreated control), in words (E. coli): cytotoxicity is induced earlier than with PMP-DOX delivery | cytotoxic effect (relative OD vs untreated control), in words (Pseudomonas aeruginosa): cytotoxicity is induced earlier than with PMP-DOX delivery | cytotoxic effect (relative OD vs untreated control), in words [1]: cytotoxicity is induced earlier than with PMP-DOX delivery | cytotoxic effect (relative OD vs untreated control), in words (Saccharomyces cerevisiae): cytotoxicity is induced earlier than with PMP-DOX delivery | DOX dose at which cytotoxicity was shown [2]: 100 µM
